The values that follow come from US20190367516A1 (Bayer Pharma Aktiengesellschaft, priority 2015, published 2019).

Assay [1] deals with T1, human M2 receptor (Homo sapiens, UniProt P08172).
T1 sequence (P08172 1-466): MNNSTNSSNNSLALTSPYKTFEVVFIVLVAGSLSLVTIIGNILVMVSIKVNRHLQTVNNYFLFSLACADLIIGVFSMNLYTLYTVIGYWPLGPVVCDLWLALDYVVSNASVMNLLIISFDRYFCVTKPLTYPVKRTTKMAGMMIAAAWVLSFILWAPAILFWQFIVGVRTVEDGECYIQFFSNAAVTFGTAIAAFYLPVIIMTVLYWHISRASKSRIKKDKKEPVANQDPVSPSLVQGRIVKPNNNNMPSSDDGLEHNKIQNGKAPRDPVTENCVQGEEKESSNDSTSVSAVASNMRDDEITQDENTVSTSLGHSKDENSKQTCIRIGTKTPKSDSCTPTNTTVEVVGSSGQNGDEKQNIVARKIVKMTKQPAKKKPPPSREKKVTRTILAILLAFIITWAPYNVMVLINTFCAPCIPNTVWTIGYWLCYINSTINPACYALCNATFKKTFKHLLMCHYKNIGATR
The assay is classed as cell-based. Particulars: α >1 = positive cooperativity.

Assay [2] deals with T1, human M2 receptor. The note with it: for Emax: read-out: Efficiency, boosting of the acetylcholine effect at EC20 acetylcholine concentration; for Efficiency: boosting of the acetylcholine effect at EC20 acetylcholine concentration.
Setting [3] is: shift in the acetylcholine dose-response curve (Allosteric EC50 shift, GraphPad PRISM).
[4] abbreviates: Receptor activity EC50, M2-GIRK1/4 activation test, acetylcholine at EC20, allosteric potency, in some cases mean values from two or more determinations.
Where [5] appears, read: shift of acetylcholine dose-response curve (Allosteric EC50 shift).
The mark [6] stands for this setting: Receptor activity EC50, allosteric potency at EC20 acetylcholine, M2-GIRK1/4 reporter cells, in some cases mean of two or more determinations.

Like-named read-outs stand apart in the source and are kept apart here.

One may read the EC50 as the concentration that produces a half-maximal response. For `CC[C@H](NC(=O)c1cn(-c2ccc(F)cc2F)c2nc(N3C[C@@H](C(=O)OC)OC3=O)ccc2c1=O)C(F)(F)F` [Example 258, Methyl (5S)-3-[8-(2,4-difluorophenyl)-5-oxo-6-{[(2S)-1,1,1-trifluorobutan-2-yl]carbamoyl}-5,8-dihydro-1,8-naphthyridin-2-yl]-2-oxo-1,3-oxazolidine-5-carboxylate], the “Cooperativity (alpha factor)” value on human M2 receptor [1] (setting [3]) is given as 30. Also, a half-maximal effect on human M2 receptor [2] (setting [4]) (EC50) was put at 147 nM.

On to `CC[C@@H](NC(=O)c1cn(-c2c(F)cc(F)cc2F)c2nc(N3CCC(O)C3=O)ccc2c1=O)C(F)(F)F` (stereo partly drawn) [Example 282, 7-[3-Hydroxy-2-oxopyrrolidin-1-yl-4-oxo-N-[(2R)-1,1,1-trifluorobutan-2-yl]-4-oxo-N-trifluorobutan-2-yl]-1-(2,4,6-trifluorophenyl)-1,4-dihydro-1,8-naphthyridine-3-carboxamide], for which the “Cooperativity (alpha factor)” value at human M2 receptor [1] (setting [3]) was found to be 32. Also, the EC50 on human M2 receptor [2] (read-out: Receptor activity EC50, M2-GIRK1/4 activation test, acetylcholine at EC20, allosteric potency, in some cases mean values from two or more determinations) amounted to 21 nM.

Take `CC[C@@H](NC(=O)c1cn(-c2ccc(F)cc2F)c2nc(N3CCC(C)(F)C3)ccc2c1=O)C(F)(F)F` (mixture of isomers) [Example 30, 1-(2,4-Difluorophenyl)-7-(3-fluoro-3-methylpyrrolidin-1-yl)-4-oxo-N-[(2R)-1,1,1-trifluorobutan-2-yl]-1,4-dihydro-1,8-naphthyridine-3-carboxamide (diastereomer mixture)]: the “Cooperativity (alpha factor)” value at human M2 receptor [1] (setting [3]) is listed as 11. At human M2 receptor [2] (setting [4]), the EC50 came to 95 nM.

Take `CC[C@H](NC(=O)c1cn(-c2c(F)cc(F)cc2Cl)c2nc(N3CCC(C)(C)C3=O)ccc2c1=O)C(F)(F)F` [Example 336, 1-(2-Chloro-4,6-difluorophenyl)-7-(3,3-dimethyl-2-oxopyrrolidin-1-yl)-4-oxo-N-[(2S)-1,1,1-trifluorobutan-2-yl]-1,4-dihydro-1,8-naphthyridine-3-carboxamide]: the “Cooperativity (alpha factor)” value at human M2 receptor [1] (setting [3]) turned out to be 13. Besides, a half-maximal response on human M2 receptor [2] (setting [4]) (EC50) required 12 nM.

Take `CC(NC(=O)c1cn(-c2ccc(F)cc2F)c2nc(N3C[C@@H](O)CC3=O)ccc2c1=O)c1c(F)cccc1F` (single isomer, unassigned) [Example 216]: the “Cooperativity (alpha factor)” value at human M2 receptor [1] (setting [3]) stood at 35. Besides, at human M2 receptor [2] (setting [4]), the EC50 is 89 nM.

As to `O=C(NC(c1ccccc1Cl)C(F)(F)F)c1cn(-c2ccccc2F)c2nc(N3CCC(O)C3=O)ccc2c1=O` (single isomer, unassigned) [Example 288], the “Cooperativity (alpha factor)” value on human M2 receptor [1] (setting [3]) stood at 12. Besides, the EC50 at human M2 receptor [2] (setting [4]) turned out to be 40 nM.

With `CC[C@H](NC(=O)c1cn(-c2ccccc2F)c2nc(N(C)C)ccc2c1=O)C(F)(F)F` [Example 203, 7-(Dimethylamino)-1-(2-fluorophenyl)-4-oxo-N-[(2S)-1,1,1-trifluorobutan-2-yl]-1,4-dihydro-1,8-naphthyridine-3-carboxamide], the “Cooperativity (alpha factor)” value on human M2 receptor [1] (setting [3]) is given as 8. For the same compound, a half-maximal response at human M2 receptor [2] (setting [4]) (EC50) required 62 nM.

With `O=C(NC(c1ccccc1Cl)C(F)(F)F)c1cn(-c2ccc(F)cc2F)c2nc(N3C[C@@H](O)CC3=O)ccc2c1=O` (mixture of isomers) [Example 211, N-[1-(2-Chlorophenyl)-2,2,2-trifluoroethyl]-1-(2,4-difluorophenyl)-7-[(4S)-4-hydroxy-2-oxopyrrolidin-1-yl]-4-oxo-1,4-dihydro-1,8-naphthyridine-3-carboxamide], on human M2 receptor [1] (setting [3]), the “Cooperativity (alpha factor)” value is given as 35. Besides, the midpoint of the response at human M2 receptor [2] (setting [4]), the EC50, lay at 21 nM.

For the compound `C[C@H](NC(=O)c1cn(-c2c(F)cc(F)cc2Cl)c2nc(N3C[C@@H](O)CC3=O)ccc2c1=O)C(F)(F)F` [Example 409, 1-(2-Chloro-4,6-difluorophenyl)-7-[(4S)-4-hydroxy-2-oxopyrrolidin-1-yl]-4-oxo-N-[(2S)-1,1,1-trifluoropropan-2-yl]-1,4-dihydro-1,8-naphthyridine-3-carboxamide], the “Cooperativity (alpha factor)” value at human M2 receptor [1] (setting [5]) is reported as 22. For the same compound, the response at human M2 receptor [2] (setting [6]) was half-maximal at 19 nM (EC50). Moreover, at human M2 receptor [2] (M2-GIRK1/4 reporter cells), the Emax is 99.5%.

`CC[C@@H](NC(=O)c1cn(-c2ccc(F)cc2F)c2nc(N3CC4CC4(O)C3)ccc2c1=O)C(F)(F)F` (single isomer, unassigned) [Example 314]: on human M2 receptor [1] (setting [3]), the “Cooperativity (alpha factor)” value came to 24. At human M2 receptor [2] (setting [4]), it took 27 nM to reach a half-maximal effect (EC50).

With `COC(=O)N1CCN(c2ccc3c(=O)c(C(=O)NC45CC6CC(CC(C6)C4)C5)cn(-c4ccc(F)cc4F)c3n2)CC1` [Example 4, Methyl 4-[8-(2,4-difluorophenyl)-5-oxo-6-(tricyclo[3.3.1.1^3,7]dec-1-ylcarbamoyl)-5,8-dihydro-1,8-naphthyridin-2-yl]piperazine-1-carboxylate], on human M2 receptor [1] (setting [3]), the “Cooperativity (alpha factor)” value was 30. Further, the response on human M2 receptor [2] (setting [4]) was half-maximal at 24 nM (EC50).

For the compound `CC[C@H](NC(=O)c1cn(-c2c(F)cc(F)cc2F)c2nc(N3CCCN(CCO)C3=O)ccc2c1=O)C(F)(F)F` [Example 365, 7-[3-(2-Hydroxyethyl)-2-oxotetrahydropyrimidin-1(2H)-yl]-4-oxo-N-[(2S)-1,1,1-trifluorobutan-2-yl]-1-(2,4,6-trifluorophenyl)-1,4-dihydro-1,8-naphthyridine-3-carboxamide], on human M2 receptor [1] (setting [3]), the “Cooperativity (alpha factor)” value is 20. On human M2 receptor [2] (setting [4]), this compound gave an EC50 of 21 nM.

Consider `CC[C@H](NC(=O)c1cn(-c2c(F)cc(F)cc2Cl)c2nc(N3CCC(C)C3=O)ccc2c1=O)C(F)(F)F` (single isomer, unassigned) [Example 424], for which the “Cooperativity (alpha factor)” value on human M2 receptor [1] (setting [5]) worked out at 15. Also, the EC50 at human M2 receptor [2] (setting [6]) amounted to 7 nM. For the same compound, the Efficiency on human M2 receptor [2] (M2-GIRK1/4 reporter cells) is on record as 99.0%.

For the compound `O=C(NC12CCC(F)(CC1)CC2)c1cn(-c2ccc(F)cc2F)c2nc(NCC(F)(F)F)ccc2c1=O` [Example 97, 1-(2,4-Difluorophenyl)-N-(4-fluorobicyclo[2.2.2]oct-1-yl)-4-oxo-7-[(2,2,2-trifluoroethyl)amino]-1,4-dihydro-1,8-naphthyridine-3-carboxamide], the “Cooperativity (alpha factor)” value on human M2 receptor [1] (setting [3]) amounted to 9. The 50% effective concentration (EC50) at human M2 receptor [2] (setting [4]) worked out at 209 nM.

`CC(C)C(NC(=O)c1cn(-c2c(F)cc(F)cc2F)c2nc(N3CCNC3=O)ccc2c1=O)C(F)(F)F` (racemic) [Example 537, 4-Oxo-7-(2-oxoimidazolidin-1-yl)-N-[1,1,1-trifluoro-3-methylbutan-2-yl]-1-(2,4,6-trifluorophenyl)-1,4-dihydro-1,8-naphthyridine-3-carboxamide]: the “Cooperativity (alpha factor)” value on human M2 receptor [1] (setting [5]) is 31. A half-maximal response at human M2 receptor [2] (setting [6]) (EC50) required 10 nM. The Efficiency at human M2 receptor [2] (M2-GIRK1/4 reporter cells) is listed as 92.0%.

On to `CN(CCF)c1ccc2c(=O)c(C(=O)NC(C(F)(F)F)C(F)(F)F)cn(-c3ccc(F)cc3F)c2n1` [Example 111, 1-(2,4-Difluorophenyl)-7-[(2-fluoroethyl)(methyl)amino]-N-(1,1,1,3,3,3-hexafluoropropan-2-yl)-4-oxo-1,4-dihydro-1,8-naphthyridine-3-carboxamide], for which, on human M2 receptor [1] (setting [3]), the “Cooperativity (alpha factor)” value is 26. On human M2 receptor [2] (setting [4]), this compound had an EC50 of 35 nM.

Take `CC1(C)CN(c2ccc3c(=O)c(C(=O)N[C@@H](C4CC4)C(F)(F)F)cn(-c4c(F)cc(F)cc4F)c3n2)C(=O)N1` [Example 451, N-[(1 S)-1-Cyclopropyl-2,2,2-trifluoroethyl]-7-(4,4-dimethyl-2-oxoimidazolidin-1-yl)-4-oxo-1-(2,4,6-trifluorophenyl)-1,4-dihydro-1,8-naphthyridine-3-carboxamide]: the “Cooperativity (alpha factor)” value on human M2 receptor [1] (setting [5]) was 21. The compound further registered an EC50 at human M2 receptor [2] (setting [6]) of 8 nM. Besides, the Emax at human M2 receptor [2] (M2-GIRK1/4 reporter cells) was 91%.

Consider `O=C(Nc1c(Cl)cccc1Cl)c1cn(-c2ccc(F)cc2F)c2nc(NCC(F)(F)F)ccc2c1=O` [Example 163, N-(2,6-Dichlorophenyl)-1-(2,4-difluorophenyl)-4-oxo-7-[(2,2,2-trifluoroethyl)amino]-1,4-dihydro-1,8-naphthyridine-3-carboxamide], for which the “Cooperativity (alpha factor)” value on human M2 receptor [1] (setting [3]) turned out to be 13. The midpoint of the response on human M2 receptor [2] (setting [4]), the EC50, lay at 173 nM.

Consider `CCC(COC(F)(F)F)NC(=O)c1cn(-c2c(F)cc(F)cc2F)c2nc(N3C[C@@H](O)CC3=O)ccc2c1=O` (mixture of isomers) [Example 410, 7-[(4S)-4-Hydroxy-2-oxopyrrolidin-1-yl]-4-oxo-N-[1-(trifluoromethoxy)butan-2-yl]-1-(2,4,6-trifluorophenyl)-1,4-dihydro-1,8-naphthyridine-3-carboxamide], for which the “Cooperativity (alpha factor)” value on human M2 receptor [1] (setting [5]) is listed as 36. This compound also gave an EC50 at human M2 receptor [2] (setting [6]) of 9 nM. On human M2 receptor [2] (M2-GIRK1/4 reporter cells), the Emax stood at 87%.

In the case of `O=C(NC(c1ccccc1Cl)C(F)(F)F)c1cn(-c2c(F)cc(F)cc2F)c2nc(N3C[C@@H](O)[C@H](O)C3)ccc2c1=O` (single isomer, unassigned) [Example 561], the “Cooperativity (alpha factor)” value on human M2 receptor [1] (setting [5]) worked out at 62. At human M2 receptor [2] (setting [6]), this compound came in with an EC50 of 4 nM. Moreover, the Emax at human M2 receptor [2] (M2-GIRK1/4 reporter cells) amounted to 95%.

As to `CC[C@@H](NC(=O)c1cn(-c2c(F)cccc2F)c2nc(N3CC4CC4(O)C3)ccc2c1=O)C(F)(F)F` (mixture of isomers) [Example 304, 1-(2,6-Difluorophenyl)-7-[1-hydroxy-3-azabicyclo[3.1.0]hex-3-yl]-4-oxo-N-[(2R)-1,1,1-trifluorobutan-2-yl]-1,4-dihydro-1,8-naphthyridine-3-carboxamide], at human M2 receptor [1] (setting [3]), the “Cooperativity (alpha factor)” value was 24. For the same compound, at human M2 receptor [2] (setting [4]), a half-maximal effect (EC50) was put at 9 nM.
